From patent US20200046654A1, “BUPROPION AND PHARMACEUTICAL COMPOSITION FOR TREATING CANCER AND METHOD FOR INHIBITING MIGRATION OF TUMOR CELLS” (NATIONAL CHIAO TUNG UNIVERSITY, priority 2018, published 2020)

How the values were obtained:
MDA-MB-231 cells [1] = experiment: cell migration assay, MDA-MB-231; type: cell-based, human; settings: 12 hours, with or without nicotine
Description: (§1) MDA-MB-231 cells well treated with or without (control group) nicotine, DMSO, 0.1 μM, and 1 μM bupropion were then respectively added to the cells. Twelve hours after bupropion addition, the cells were fixed with formaldehyde, and stained with PI for 30 minutes; then photos of the cells were acquired. The numbers of migrating cells were calculated by imageJ software. This assay was repeated 3 times.

[2] = test system: MDA-MB-231 cells with a luminescence reporter gene; experiment: MDA-MB-231-based spontaneous pulmonary metastasis animal model; type: in vivo, SCID mice; settings: two months; for number of the migrating tumor cells to the lungs (photon flux): bupropion i.p. three times a week, 100 or 200 μg per kilogram
Description: MDA-MB-231 cells with a luminescence reporter gene were implanted into severe combined immunodeficiency (SCID) mice. The nicotine treatment was carried out by adding nicotine (10 μg/ml) to the drinking water of the mice. The mice were injected intraperitoneally with bupropion three times a week at doses of 100 or 200 μg per kilogram. After two months, the mice were sacrificed and the lungs were dissected. IVIS was used to take the luminescence images of the lungs. The photon influx measured in the images represents the metastasis level of the mouse tumor cells to the lung tissue.

MDA-MB-453 = experiment: cell migration assay, MDA-MB-453; type: cell-based, human
Description: as §1
In addition, a HER2 overexpression subtype of a breast cancer cell line, MDA-MB-453, was used to test the inhibitory effect of bupropion on tumor migration. The experimental method was the same as the cell migration assay of Example 7 above.

MDA-MB-231 cells [3] = experiment: cell invasion assay (Matrigel invasion chambers); type: cell-based, human; settings: 48 hours, with or without nicotine
Description: The inhibitory effect of bupropion on tumor invasion was tested by cell invasion assay. MDA-MB-231 cells were plated on to Matrigel invasion chambers in serum-starved medium, and the cells in the lower chamber were cultured using normal medium. The media in both of the upper and the lower chambers contained 0.1 μM bupropion, or 1 μM bupropion, and the cells were treated with or without (control group) nicotine. After the cells were cultured for 48 hours, the upper chambers were washed with PBS and fixed with formaldehyde for 30 minutes. The cells in the upper chambers were stained with crystal violet for two hours, and photos were acquired under a microscope. The numbers of invading tumor cells were calculated by ImageJ software.

CHRNA9/CFP and ERBB2/YFP = CHRNA9/CFP and ERBB2/YFP (Homo sapiens, UniProt Q9UGM1)
Sequence of CHRNA9/CFP and ERBB2/YFP (Q9UGM1 23-479): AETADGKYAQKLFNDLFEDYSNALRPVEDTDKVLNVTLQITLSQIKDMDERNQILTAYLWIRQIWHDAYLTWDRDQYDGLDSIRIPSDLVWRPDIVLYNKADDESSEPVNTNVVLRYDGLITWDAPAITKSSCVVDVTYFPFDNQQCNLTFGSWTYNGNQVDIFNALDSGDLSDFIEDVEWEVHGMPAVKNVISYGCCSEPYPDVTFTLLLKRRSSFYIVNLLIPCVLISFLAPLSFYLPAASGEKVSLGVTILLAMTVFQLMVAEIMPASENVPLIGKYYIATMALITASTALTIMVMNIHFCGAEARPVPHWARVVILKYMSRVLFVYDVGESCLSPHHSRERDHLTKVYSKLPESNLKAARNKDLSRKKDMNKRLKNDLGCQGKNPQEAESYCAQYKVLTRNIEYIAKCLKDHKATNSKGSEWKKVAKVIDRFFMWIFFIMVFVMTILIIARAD
From the text: In order to further investigate the interaction between CHRNA9 and ERBB2 ex vivo, a plasmid expressing CHRNA9/CFP and a plasmid expressing ERBB2/YFP were constructed and then co-transfected into MDA-MB-231 cells. FRET and fluorescence-lifetime imaging microscopy (FLIM) were used.
To further clarify whether CHRNA9 and ERBB2 are dissociated after nicotine exposure, two-photon FLIM was used to monitor the FRET activity between CHRNA9/CFP and ERBB2/YFP. The plasmids expressing CHRNA9/CFP and the plasmids expressing ERBB2/YFP were co-transfected into MDA-MB-231 cells. After two days, the cells were treated with 10 μM nicotine.

CHRNA9/ERBB2 complex = CHRNA9/ERBB2 complex (Homo sapiens, UniProt Q9UGM1); settings: oral nicotine, at 30 minutes of exposure, vs before exposure
Sequence of CHRNA9/ERBB2 complex (Q9UGM1 23-479, one chain of several): as the sequence (Q9UGM1 23-479) above
From the text: Split luciferase complementation assay was used to investigate the association and dissociation between CHRNA9 and ERBB2.
The N terminal (Nluc) and the C terminal (Cluc) of luciferase were respectively constructed with ERBB2 and CHRNA9 to form the plasmids expressing the fusion proteins. When ERBB2 and CHRNA9 interact with each other, the Nluc and the Cluc are also close to each other to assemble together, and present luciferase activity. Therefore, after Luciferin addition, luminescence can be generated. When ERBB2 and CHRNA9 dissociate from each other, the Nluc and Cluc also dissociate from each other; therefore, no luciferase activity exists.
Then a xenograft animal model was used. Plasmids expressing ERBB2/Nluc fusion protein and plasmids expressing CHRNA9/Cluc fusion protein were co-transfected into MDA-MB-231 cells, then the cells expressing the fusion proteins were injected into the mammary pads of nude mice.

CC(NC(C)(C)C)C(=O)c1cccc(Cl)c1 (stereo not drawn) [bupropion]
migration of MDA-MB-231 cells (MDA-MB-231 cells [1]; 0.1 μM bupropion): significantly inhibited | migration of MDA-MB-231 cells (MDA-MB-231 cells [1]; 1 μM bupropion): significantly inhibited | number of the migrating tumor cells to the lungs (photon flux) ([2]; nicotine-free mice): significantly decreased | number of the migrating tumor cells to the lungs (photon flux) ([2]; nicotine-treated mice): significantly decreased | migration of MDA-MB-453 cells (MDA-MB-453; 0.1 μM bupropion): significantly inhibited | migration of MDA-MB-453 cells (MDA-MB-453; 1 μM bupropion): significantly inhibited | invasion of MDA-MB-231 cells (MDA-MB-231 cells [3]; 0.1 μM bupropion): significantly inhibited | invasion of MDA-MB-231 cells (MDA-MB-231 cells [3]; 1 μM bupropion): significantly inhibited

CN1CCCC1c1cccnc1 (stereo not drawn) [nicotine]
FRET activity on the cell membrane between CHRNA9/CFP and ERBB2/YFP (CHRNA9/CFP and ERBB2/YFP; after 10 μM nicotine exposure, MDA-MB-231 cells): gradually decreased | FRET activity on the membrane after removal of nicotine (CHRNA9/CFP and ERBB2/YFP; cells washed with PBS to remove nicotine): gradually recovered to the baseline | number of the metastatic tumor cells in the lung tissues (photon flux) ([2]; nicotine 10 μg/ml in drinking water): significantly increased | photon influx (luciferase activity in tumor region) relative to control group (CHRNA9/ERBB2 complex): 26.3%
